Source: patent US7030157B2, “Pharmaceutical compositions, kits and methods comprising combinations of estrogen agonists/antagonists, estrogens and progestins” (priority 2001, dated 2006)
“Also recorded” adds a separate entry of the source.

Experiments:
OVX-induced bone loss = test: pQCT of the distal femur in OVX rats; format: in vivo, Sprague-Dawley female rats; settings: for pQCT cortical content, distal femur / pQCT total density, distal femur: daily gavage 28 days, EE 0.03 mg/kg, LAS 0.1 mg/kg; for OVX-induced bone loss: fully efficacious doses (EE 0.03 mg/kg, LAS 0.1 mg/kg), 28 days
Protocol: (§1) Sprague-Dawley female rats at 5.5 months of age were used in this study. Rats underwent either sham-operation or bilateral ovariectomy. Beginning at 1 day post-surgery, the rats were treated (daily gavage) with vehicle, 17α-ethanyl estradiol (EE) alone, lasofoxifene (LAS) alone, or combination of both EE and LAS for 28 days, according to the following protocol.
(§2) There were 10 rats in each group. All rats received subcutaneous injections of the fluorescent marker, calcein, at 10 mg/kg on days 12 and 2 before necropsy in order to determine dynamic bone changes. After 28 days of treatment, the rats were necropsy, and the following endpoints were determined. • Body weight • Total serum cholesterol (TSC) • Uterine wet weight • Peripheral quantitative computerized tomography (pQCT). A pQCT X-ray machine (Stratec XCT Reasearch M, Norland Medical Systems, Fort Atkinson, Wis.) with version 5.40 was used to scan femurs from this study. A cross sectional slice 1 mm in thickness was taken of the femoral metaphysis approximately 5 mm proximal to the distal end. A voxel size of 0.10 mm was used, with dimensions of 100×100×1000 micometers. Cortical bone was defined and analyzed using contour mode 2 and cortical mode 4. The cortical shell was distinguished from soft tissue with an outer threshold setting of 349 mg/cm^3. Furthermore, cortical bone along the endocortical surface was determined with an inner threshold of 529 mg/cm^3. In order to determine the presence of trabecular bone, peel mode 4 was used. (Sub)Cortical bone was distinguished from cancellous bone with a threshold setting of 655 mg/cm^3. An additional concentric peel was also used to eliminate (sub)cortical bone from any analyses. For trabecular and cortical bone, content, density and area were determined. […] Tibiae were removed upon necropsy and removed of tissue. The proximal portion of the tibia was fixed in 70% ethanol, dehydrated in graded concentrations of ethanol, defatted in acetone, and embedded in methyl methacrylate. Four and ten μm sections were taken to determine several histomorphometric parameters with an Image Analysis System (Osteomeasure, Inc., Atlanta, Ga.). The 10 μm remained unstained while the 4 μm section was stained with modified Masson's Trichrome stain (5,6,7). Statistics
(§3) Statistics were calculated using StatView 4.0 software (Abacus Concepts, Inc., Berkeley, Calif.). Fisher's PLSD was used to determine the differences between each group. A p value<0.05 was considered a significant difference.

uterus of OVX rats = test: Uterine wet weight in OVX rats
Protocol: as §1
(§4) There were 10 rats in each group. All rats received subcutaneous injections of the fluorescent marker, calcein, at 10 mg/kg on days 12 and 2 before necropsy in order to determine dynamic bone changes. After 28 days of treatment, the rats were necropsy, and the following endpoints were determined. • Body weight • Total serum cholesterol (TSC) • Uterine wet weight • Peripheral quantitative computerized tomography (pQCT). A pQCT X-ray machine (Stratec XCT Reasearch M, Norland Medical Systems, Fort Atkinson, Wis.) with version 5.40 was used to scan femurs from this study. […] Cortical bone was defined and analyzed using contour mode 2 and cortical mode 4. […] Furthermore, cortical bone along the endocortical surface was determined with an inner threshold of 529 mg/cm^3. […] For trabecular and cortical bone, content, density and area were determined. […]
(§5) Statistics were calculated using StatView 4.0 software (Abacus Concepts, Inc., Berkeley, Calif.). […]

[1] = tested on: OVX-induced bone resorption and bone turnover; test: Dynamic histomorphometry of the proximal tibial metaphysis in OVX rats; format: in vivo, Sprague-Dawley female rats; settings: daily gavage 28 days, EE 0.03 mg/kg, LAS 0.1 mg/kg
Protocol: as §1, §2, §3

[2] = Total serum cholesterol (TSC) in OVX rats; format: in vivo, Sprague-Dawley female rats; settings: daily gavage 28 days, EE 0.03 mg/kg, LAS 0.1 mg/kg
Protocol: as §1, §4, §5

estrogen receptor α = estrogen receptor α (Homo sapiens, UniProt P03372); settings: previously reported; similar to the binding of estradiol; cited from earlier work
estrogen receptor β = estrogen receptor β (Homo sapiens, UniProt Q92731); settings: previously reported; similar to the binding of estradiol; cited from earlier work
breast cancer = settings: previously reported; cited from earlier work
[3] = tested on: uterine cancer cell lines; settings: previously reported; cited from earlier work

estrogen receptor β, sequence (Q92731 whole entry): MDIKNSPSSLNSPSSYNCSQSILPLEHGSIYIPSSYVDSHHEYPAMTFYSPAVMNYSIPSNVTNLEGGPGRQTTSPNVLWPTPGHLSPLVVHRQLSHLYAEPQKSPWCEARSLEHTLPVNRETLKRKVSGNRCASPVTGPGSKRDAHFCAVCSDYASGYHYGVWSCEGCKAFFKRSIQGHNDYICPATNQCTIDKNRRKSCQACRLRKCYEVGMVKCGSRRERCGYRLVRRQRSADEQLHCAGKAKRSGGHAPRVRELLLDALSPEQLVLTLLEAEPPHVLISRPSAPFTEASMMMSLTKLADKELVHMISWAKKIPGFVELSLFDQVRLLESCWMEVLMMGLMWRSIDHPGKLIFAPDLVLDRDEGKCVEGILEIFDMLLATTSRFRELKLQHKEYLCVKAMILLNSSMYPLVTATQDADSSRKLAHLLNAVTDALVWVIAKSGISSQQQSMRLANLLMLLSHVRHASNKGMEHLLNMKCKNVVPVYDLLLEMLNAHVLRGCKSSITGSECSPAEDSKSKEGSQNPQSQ
estrogen receptor α, sequence (P03372 whole entry): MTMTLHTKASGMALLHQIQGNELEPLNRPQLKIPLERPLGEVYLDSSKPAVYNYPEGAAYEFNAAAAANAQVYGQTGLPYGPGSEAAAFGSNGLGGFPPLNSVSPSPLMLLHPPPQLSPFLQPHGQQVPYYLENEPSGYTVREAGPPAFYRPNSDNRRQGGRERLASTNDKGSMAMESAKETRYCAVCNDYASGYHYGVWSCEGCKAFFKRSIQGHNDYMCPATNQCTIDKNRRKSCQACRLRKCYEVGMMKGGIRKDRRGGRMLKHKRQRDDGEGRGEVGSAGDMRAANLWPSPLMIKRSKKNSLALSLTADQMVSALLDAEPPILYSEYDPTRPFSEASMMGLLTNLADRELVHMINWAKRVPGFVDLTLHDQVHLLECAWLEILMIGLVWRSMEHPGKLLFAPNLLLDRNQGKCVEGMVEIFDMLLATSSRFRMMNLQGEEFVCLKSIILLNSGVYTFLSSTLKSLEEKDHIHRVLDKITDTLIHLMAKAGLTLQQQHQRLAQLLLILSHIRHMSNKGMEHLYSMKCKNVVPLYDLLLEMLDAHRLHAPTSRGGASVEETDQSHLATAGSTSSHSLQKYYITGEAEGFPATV

| Compound | pQCT cortical content, distal femur (OVX-induced bone loss) | pQCT total density, distal femur (OVX-induced bone loss) | OVX-induced bone loss (OVX-induced bone loss) | uterine wet weight (uterus of OVX rats; daily gavage 28 days, EE 0.03 mg/kg, LAS 0.1 mg/kg) | bone formation rate (BFR/BS) [1] | mineral apposition rate (MAR) [1] | mineralizing surface (MS/BS) [1] | osteoclast number (Oc.N/BS) [1] | osteoclast surface (Oc.S/BS) [1] | total serum cholesterol (TSC) [2] | effect of LAS on the uterine effects of EE on co-administration (uterus of OVX rats; EE 0.03 mg/kg + LAS 0.1 mg/kg, 28 days, tartrate salt) | binding to estrogen receptor α (estrogen receptor α) | total serum cholesterol (TSC) ([2]; tartrate salt) | binding to estrogen receptor β (estrogen receptor β) | proliferation of breast cancer in vivo (breast cancer) | proliferation of uterine cancer cell lines in vitro [3] |
| --- | --- | --- | --- | --- | --- | --- | --- | --- | --- | --- | --- | --- | --- | --- | --- | --- |
| C#C[C@]1(O)CC[C@H]2[C@@H]3CCc4cc(O)ccc4[C@H]3CC[C@@]21C [EE, 17α-ethanyl estradiol, reference compound] | completely prevented the OVX-induced decrease | completely prevented the OVX-induced decrease | completely prevented OVX-induced bone loss | maintained the uterine wet weight at the level of sham controls | completely prevented these changes | completely prevented these changes | completely prevented these changes | completely prevented these changes | completely prevented these changes | completely prevented this increase | – | – | – | – | – | – |
| O=C(O)C(O)C(O)C(=O)O.Oc1ccc2c(c1)CC[C@H](c1ccccc1)[C@@H]2c1ccc(OCCN2CCCC2)cc1 [LAS, (−)-cis-6-phenyl-5-[4-(2-pyrrolidin-1-yl-ethoxy)-phenyl]-5,6,7,8-tetrahydro-naphthalene-2-ol, tartrate salt] | completely prevented the OVX-induced decrease | completely prevented the OVX-induced decrease | completely prevented OVX-induced bone loss | – | completely prevented these changes | completely prevented these changes | completely prevented these changes | completely prevented these changes | completely prevented these changes | – | blocked the agonistic effects of EE in the uterus of OVX rats; also recorded: antagonized the uterine hypertrophy effects induced by EE | bound selectively and with high affinity | prevented the OVX-induced increase in TSC; also recorded: significantly decreased TSC to a level below both sham controls and rats treated with EE | bound selectively and with high affinity | antagonizes the proliferation | antagonizes the proliferation |
